The text below walks through data of ChEMBL document CHEMBL5291721, “A preclinical secondary pharmacology resource illuminates target-adverse drug reaction associations of marketed drugs” (Nat Commun, 2023).

Each structure is given as a SMILES string.

The target in one experiment is D(3) dopamine receptor (Homo sapiens, UniProt P35462).
The target of experiment [1] is T1, Muscarinic acetylcholine receptor M1 (Homo sapiens, UniProt P11229).
T1 sequence (P11229 whole entry): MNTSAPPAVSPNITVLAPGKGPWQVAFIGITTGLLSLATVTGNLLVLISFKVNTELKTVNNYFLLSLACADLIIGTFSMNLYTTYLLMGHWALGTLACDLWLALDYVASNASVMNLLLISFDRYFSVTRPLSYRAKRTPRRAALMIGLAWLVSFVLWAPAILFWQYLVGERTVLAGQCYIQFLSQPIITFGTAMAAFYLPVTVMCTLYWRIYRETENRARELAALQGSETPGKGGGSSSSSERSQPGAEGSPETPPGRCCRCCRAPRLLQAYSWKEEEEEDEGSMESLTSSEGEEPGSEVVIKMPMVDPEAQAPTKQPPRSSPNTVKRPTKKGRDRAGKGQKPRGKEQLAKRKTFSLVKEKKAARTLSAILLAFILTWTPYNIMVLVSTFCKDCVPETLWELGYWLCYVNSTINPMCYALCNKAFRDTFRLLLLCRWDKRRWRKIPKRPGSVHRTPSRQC
In kind it is functional, cell-based.

For experiment [2], the target named is T2, Alpha-1A adrenergic receptor (Homo sapiens, UniProt P35348).
T2 sequence (P35348 whole entry): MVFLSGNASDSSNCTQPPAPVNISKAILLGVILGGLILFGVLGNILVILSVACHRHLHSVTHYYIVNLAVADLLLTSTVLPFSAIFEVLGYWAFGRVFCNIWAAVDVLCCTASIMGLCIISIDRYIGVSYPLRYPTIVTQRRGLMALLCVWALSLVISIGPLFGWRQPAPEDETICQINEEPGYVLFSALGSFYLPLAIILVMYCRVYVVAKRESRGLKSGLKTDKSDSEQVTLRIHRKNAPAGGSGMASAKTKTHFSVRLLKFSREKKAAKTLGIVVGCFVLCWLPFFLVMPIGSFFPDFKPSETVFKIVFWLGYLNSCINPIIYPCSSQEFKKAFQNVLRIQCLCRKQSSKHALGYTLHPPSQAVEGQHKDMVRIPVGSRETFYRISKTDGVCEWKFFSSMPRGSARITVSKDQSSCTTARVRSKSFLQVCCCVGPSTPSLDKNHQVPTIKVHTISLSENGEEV
In kind it is functional, cell-based.

Experiment [3] deals with Gamma-aminobutyric acid receptor subunit alpha-1 (Rattus norvegicus, UniProt P62813).
Gamma-aminobutyric acid receptor subunit alpha-1, sequence (P62813 whole entry): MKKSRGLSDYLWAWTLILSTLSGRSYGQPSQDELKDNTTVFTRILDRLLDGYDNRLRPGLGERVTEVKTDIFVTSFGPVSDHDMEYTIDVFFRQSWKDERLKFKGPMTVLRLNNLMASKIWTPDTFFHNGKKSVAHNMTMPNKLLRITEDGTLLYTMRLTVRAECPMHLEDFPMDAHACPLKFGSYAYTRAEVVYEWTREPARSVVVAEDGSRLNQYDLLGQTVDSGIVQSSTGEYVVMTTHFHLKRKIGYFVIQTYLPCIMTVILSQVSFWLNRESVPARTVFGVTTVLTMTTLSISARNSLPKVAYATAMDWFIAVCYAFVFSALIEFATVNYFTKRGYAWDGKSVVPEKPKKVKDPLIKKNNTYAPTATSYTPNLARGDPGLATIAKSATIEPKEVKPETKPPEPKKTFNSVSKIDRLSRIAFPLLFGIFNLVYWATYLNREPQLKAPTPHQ
The target of the next experiment is T3, Estrogen receptor (Homo sapiens, UniProt P03372).
T3 sequence (P03372 whole entry): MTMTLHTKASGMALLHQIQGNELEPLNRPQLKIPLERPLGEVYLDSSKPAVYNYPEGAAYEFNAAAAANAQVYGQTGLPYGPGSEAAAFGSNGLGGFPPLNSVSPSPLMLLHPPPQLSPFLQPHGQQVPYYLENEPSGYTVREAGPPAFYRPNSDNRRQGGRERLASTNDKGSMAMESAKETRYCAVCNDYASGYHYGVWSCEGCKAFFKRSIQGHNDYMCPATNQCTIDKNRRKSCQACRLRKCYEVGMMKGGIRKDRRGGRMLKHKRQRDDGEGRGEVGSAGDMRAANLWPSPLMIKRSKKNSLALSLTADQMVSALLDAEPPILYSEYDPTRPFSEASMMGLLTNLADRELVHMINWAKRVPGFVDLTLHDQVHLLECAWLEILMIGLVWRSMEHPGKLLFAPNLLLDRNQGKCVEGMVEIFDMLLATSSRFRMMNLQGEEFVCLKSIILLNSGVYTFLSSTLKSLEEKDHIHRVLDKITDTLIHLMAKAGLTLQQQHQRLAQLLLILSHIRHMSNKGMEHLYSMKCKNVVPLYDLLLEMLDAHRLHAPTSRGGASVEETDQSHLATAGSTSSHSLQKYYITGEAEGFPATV

The next experiment concerns the target T4, Androgen receptor (Homo sapiens, UniProt P10275).
T4 sequence (P10275 whole entry): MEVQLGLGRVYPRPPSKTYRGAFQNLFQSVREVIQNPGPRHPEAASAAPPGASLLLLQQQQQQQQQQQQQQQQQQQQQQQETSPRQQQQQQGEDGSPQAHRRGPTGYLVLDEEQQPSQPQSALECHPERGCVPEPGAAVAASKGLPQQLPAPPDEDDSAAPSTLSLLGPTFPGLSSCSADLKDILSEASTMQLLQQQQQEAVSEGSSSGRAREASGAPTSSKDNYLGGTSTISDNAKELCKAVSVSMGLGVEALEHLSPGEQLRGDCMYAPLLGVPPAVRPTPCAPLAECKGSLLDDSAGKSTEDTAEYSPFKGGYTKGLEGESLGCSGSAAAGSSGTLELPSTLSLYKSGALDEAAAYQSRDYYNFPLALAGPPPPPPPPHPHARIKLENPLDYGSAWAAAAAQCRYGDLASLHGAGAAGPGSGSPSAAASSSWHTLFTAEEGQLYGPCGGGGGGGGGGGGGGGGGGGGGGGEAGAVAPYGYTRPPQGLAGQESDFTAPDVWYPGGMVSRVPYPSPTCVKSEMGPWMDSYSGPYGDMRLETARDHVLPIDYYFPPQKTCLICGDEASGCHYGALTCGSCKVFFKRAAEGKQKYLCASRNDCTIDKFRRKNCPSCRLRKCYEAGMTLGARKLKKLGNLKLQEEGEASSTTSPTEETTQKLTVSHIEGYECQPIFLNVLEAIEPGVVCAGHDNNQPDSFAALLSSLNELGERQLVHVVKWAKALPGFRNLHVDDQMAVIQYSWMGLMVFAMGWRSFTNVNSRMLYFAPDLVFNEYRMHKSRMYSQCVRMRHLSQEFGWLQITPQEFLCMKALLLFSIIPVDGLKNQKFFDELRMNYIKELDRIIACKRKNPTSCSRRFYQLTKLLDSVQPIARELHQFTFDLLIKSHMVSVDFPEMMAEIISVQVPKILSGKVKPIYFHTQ

Another experiment has as its target Histamine H1 receptor (Homo sapiens, UniProt P35367).
For experiment [4], the target named is Beta-2 adrenergic receptor (Homo sapiens, UniProt P07550). In kind it is functional, cell-based.
Beta-2 adrenergic receptor, sequence (P07550 whole entry): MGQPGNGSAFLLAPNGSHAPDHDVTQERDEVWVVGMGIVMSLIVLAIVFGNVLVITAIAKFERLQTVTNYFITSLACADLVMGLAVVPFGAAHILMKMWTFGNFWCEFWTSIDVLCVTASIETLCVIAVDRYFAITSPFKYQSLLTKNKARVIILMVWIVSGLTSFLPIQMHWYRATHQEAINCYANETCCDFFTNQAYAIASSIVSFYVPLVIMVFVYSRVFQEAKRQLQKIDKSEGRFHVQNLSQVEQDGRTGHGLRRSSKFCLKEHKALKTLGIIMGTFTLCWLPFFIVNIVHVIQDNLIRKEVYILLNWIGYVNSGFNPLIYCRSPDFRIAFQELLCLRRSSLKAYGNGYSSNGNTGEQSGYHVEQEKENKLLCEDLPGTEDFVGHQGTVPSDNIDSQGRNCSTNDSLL
Experiment [5] has as its target Gamma-aminobutyric acid receptor subunit alpha-1/alpha-2/beta-2/gamma-2 (Homo sapiens, UniProt P14867+P18507+P47869+P47870). In kind it is protein-complex assay.
Also: assay procedure not described here.

Gamma-aminobutyric acid receptor subunit alpha-1/alpha-2/beta-2/gamma-2, sequence (P14867 whole entry): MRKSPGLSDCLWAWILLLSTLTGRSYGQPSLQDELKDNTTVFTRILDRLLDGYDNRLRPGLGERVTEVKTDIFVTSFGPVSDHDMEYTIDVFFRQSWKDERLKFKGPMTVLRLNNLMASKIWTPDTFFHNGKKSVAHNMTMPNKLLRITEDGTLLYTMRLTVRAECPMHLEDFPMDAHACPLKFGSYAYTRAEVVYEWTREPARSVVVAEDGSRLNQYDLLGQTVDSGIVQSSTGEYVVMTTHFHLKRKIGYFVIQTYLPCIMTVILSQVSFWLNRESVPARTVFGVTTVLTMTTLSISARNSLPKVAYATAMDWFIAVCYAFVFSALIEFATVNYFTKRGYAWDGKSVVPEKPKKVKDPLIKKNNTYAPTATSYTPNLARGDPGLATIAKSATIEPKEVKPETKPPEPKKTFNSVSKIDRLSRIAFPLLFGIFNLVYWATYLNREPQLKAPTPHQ
Gamma-aminobutyric acid receptor subunit alpha-1/alpha-2/beta-2/gamma-2, sequence (P47870 whole entry): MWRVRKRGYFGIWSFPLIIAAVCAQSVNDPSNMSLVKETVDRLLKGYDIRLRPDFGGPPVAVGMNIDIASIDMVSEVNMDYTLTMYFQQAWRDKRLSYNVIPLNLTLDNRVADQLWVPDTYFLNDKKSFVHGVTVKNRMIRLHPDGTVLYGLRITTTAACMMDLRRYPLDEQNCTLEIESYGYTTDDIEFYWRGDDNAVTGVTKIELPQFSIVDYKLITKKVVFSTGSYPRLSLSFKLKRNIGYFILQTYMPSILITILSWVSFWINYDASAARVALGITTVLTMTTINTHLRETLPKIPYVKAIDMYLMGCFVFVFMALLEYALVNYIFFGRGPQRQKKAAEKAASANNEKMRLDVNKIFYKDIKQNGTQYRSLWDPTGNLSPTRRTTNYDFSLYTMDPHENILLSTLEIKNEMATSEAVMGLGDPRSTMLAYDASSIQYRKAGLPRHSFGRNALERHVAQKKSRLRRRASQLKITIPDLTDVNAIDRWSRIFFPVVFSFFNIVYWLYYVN
Gamma-aminobutyric acid receptor subunit alpha-1/alpha-2/beta-2/gamma-2, sequence (P18507 whole entry): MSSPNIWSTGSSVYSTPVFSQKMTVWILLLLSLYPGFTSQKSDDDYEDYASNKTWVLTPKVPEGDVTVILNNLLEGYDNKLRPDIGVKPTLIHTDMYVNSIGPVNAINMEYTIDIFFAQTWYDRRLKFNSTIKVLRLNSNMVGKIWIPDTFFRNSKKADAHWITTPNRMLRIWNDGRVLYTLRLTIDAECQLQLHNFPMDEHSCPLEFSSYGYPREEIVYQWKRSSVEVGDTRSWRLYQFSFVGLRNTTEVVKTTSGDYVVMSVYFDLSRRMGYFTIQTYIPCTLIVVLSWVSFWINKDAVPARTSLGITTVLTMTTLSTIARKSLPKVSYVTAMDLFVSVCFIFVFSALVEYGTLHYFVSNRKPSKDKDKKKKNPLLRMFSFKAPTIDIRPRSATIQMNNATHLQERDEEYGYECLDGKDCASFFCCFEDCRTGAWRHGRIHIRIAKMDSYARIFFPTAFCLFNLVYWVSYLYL
Gamma-aminobutyric acid receptor subunit alpha-1/alpha-2/beta-2/gamma-2, sequence (P47869 whole entry): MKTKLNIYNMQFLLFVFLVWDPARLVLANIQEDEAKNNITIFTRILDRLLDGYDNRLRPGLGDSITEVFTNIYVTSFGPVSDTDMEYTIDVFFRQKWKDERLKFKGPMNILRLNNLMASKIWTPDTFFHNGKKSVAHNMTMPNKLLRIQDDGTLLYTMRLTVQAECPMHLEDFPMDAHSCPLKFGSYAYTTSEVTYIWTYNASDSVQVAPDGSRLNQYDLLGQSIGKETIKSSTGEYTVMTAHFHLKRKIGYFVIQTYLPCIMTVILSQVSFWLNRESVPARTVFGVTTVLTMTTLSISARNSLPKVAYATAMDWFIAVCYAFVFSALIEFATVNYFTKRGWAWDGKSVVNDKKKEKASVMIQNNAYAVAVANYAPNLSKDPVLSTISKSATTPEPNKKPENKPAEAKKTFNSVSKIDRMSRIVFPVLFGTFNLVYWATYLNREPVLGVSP
D(3) dopamine receptor, sequence (P35462 whole entry): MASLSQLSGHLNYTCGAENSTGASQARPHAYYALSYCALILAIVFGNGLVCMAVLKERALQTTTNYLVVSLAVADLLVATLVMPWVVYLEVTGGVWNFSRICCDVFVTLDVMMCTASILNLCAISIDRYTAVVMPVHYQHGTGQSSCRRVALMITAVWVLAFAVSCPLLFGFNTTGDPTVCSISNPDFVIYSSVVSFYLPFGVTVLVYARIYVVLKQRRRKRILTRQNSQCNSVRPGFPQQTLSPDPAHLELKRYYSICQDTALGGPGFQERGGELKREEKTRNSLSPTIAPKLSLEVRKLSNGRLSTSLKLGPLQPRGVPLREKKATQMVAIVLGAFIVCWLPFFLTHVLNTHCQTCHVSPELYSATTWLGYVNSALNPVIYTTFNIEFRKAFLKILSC
Histamine H1 receptor, sequence (P35367 whole entry): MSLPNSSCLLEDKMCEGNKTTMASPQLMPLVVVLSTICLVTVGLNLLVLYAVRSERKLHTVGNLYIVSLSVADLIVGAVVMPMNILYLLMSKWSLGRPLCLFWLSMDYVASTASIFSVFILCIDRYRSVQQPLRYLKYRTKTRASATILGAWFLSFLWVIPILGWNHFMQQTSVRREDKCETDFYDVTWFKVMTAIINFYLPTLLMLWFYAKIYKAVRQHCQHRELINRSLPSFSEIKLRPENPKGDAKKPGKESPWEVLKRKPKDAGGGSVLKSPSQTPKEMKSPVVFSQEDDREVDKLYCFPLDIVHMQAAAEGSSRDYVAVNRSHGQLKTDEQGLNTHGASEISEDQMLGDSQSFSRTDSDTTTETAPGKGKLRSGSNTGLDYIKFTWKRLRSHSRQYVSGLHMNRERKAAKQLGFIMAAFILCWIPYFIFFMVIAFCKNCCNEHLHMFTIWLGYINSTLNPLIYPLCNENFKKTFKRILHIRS

On to `OC(c1ccccc1)(c1ccccc1)C12CC[N+](CCOCc3ccccc3)(CC1)CC2`, for which the AC50 – broadly, the midpoint of the concentration-response curve, whichever way the signal moves – is more than 30 µM at D(3) dopamine receptor; 0.0053 µM in [1]; more than 30 µM in experiment [2]; more than 30 µM in experiment [3]; more than 30 µM on Estrogen receptor; more than 30 µM on Androgen receptor.
On to `CC[C@@H](C(N)=O)N1CCCC1=O`, for which the AC50 on D(3) dopamine receptor was more than 30 µM; in [1], more than 30 µM; in experiment [2] it was more than 30 µM; on Histamine H1 receptor, more than 10 µM; on Estrogen receptor, more than 30 µM; in experiment [4], more than 30 µM. Also, the AC50 in experiment [5] is more than 30 µM.
Take `N=C1CCCN1Cc1[nH]c(=O)[nH]c(=O)c1Cl`: the AC50 (in [1]; in [2]; in experiment [3]; at Estrogen receptor; at Androgen receptor) was more than 30 µM each time.
As for `Nc1ccncc1N` [AMIFAMPRIDINE], the AC50 (on D(3) dopamine receptor; in experiment [1]; in experiment [2]; in experiment [3]; in experiment [5]) was more than 30 µM throughout.
On to `CC1=C(/C=C/C(C)=C/C=C/C(C)=C/C=C/C=C(C)/C=C/C=C(C)/C=C/C2=C(C)CCCC2(C)C)C(C)(C)CCC1` [BETA CAROTENE], for which the AC50 is 20.8 µM on D(3) dopamine receptor; more than 30 µM in experiment [1]; more than 30 µM in experiment [2]; more than 30 µM in experiment [3]; more than 30 µM on Estrogen receptor; more than 30 µM at Androgen receptor.
As for `C=CCN1C[C@H](C(=O)N(CCCN(C)C)C(=O)NCC)C[C@@H]2c3cccc4[nH]cc(c34)C[C@H]21` [CABERGOLINE], the AC50 was 0.003 µM on D(3) dopamine receptor; more than 30 µM in experiment [1]; 6.8 µM at Histamine H1 receptor; more than 30 µM at Estrogen receptor; more than 30 µM in experiment [4]; more than 30 µM in [5].
Take `CC(=O)OCC1=C(C(=O)O)N2C(=O)[C@@H](NC(=O)[C@H](N)c3ccccc3)[C@H]2SC1` [CEPHALOGLYCIN]: the AC50 (on D(3) dopamine receptor; in experiment [1]; in experiment [2]; in experiment [3]; on Estrogen receptor; on Androgen receptor) was more than 30 µM each time.
On to `CC(C)(C)CC(C)(C)c1ccc(O)c(Cc2ccc(Cl)cc2Cl)c1` [CLOFOCTOL], for which the AC50 at D(3) dopamine receptor is 1.48 µM; in experiment [1], more than 10 µM; in experiment [2], more than 30 µM; in experiment [3] it was more than 30 µM; at Estrogen receptor it was 8.45 µM; at Androgen receptor it was 14.9 µM.
Regarding `CC(=O)OCC(=O)[C@@]1(O)CC[C@H]2[C@@H]3CCC4=CC(=O)C=C[C@]4(C)[C@@]3(Cl)[C@@H](Cl)C[C@@]21C` [DICHLORISONE ACETATE], the AC50 at D(3) dopamine receptor was more than 30 µM; in experiment [1], more than 30 µM; in experiment [2] it was more than 30 µM; in experiment [3] it was more than 30 µM; on Estrogen receptor it was more than 30 µM; at Androgen receptor it was 0.128 µM.
As for `CC[C@H]1CN2CC[C@H]1C[C@H]2[C@H](O)c1ccnc2ccc(OC)cc12` [HYDROQUININE], the AC50 (on D(3) dopamine receptor; in [1]; in experiment [2]; in experiment [3]; at Estrogen receptor; at Androgen receptor) was more than 30 µM each time.
With `O=C(O)c1ccccc1C(=O)Nc1ccc(S(=O)(=O)Nc2nccs2)cc1` [PHTHALYLSULFATHIAZOLE], the AC50 (on D(3) dopamine receptor; in [1]; in [2]; in experiment [3]; on Androgen receptor) was more than 30 µM throughout.
As for `OC(CCN1CCCCC1)(c1ccccc1)c1ccccc1` [PRIDINOL], the AC50 in experiment [1] was 0.0824 µM; in [2], more than 30 µM; in experiment [3] it was more than 30 µM; on Estrogen receptor it was more than 30 µM; on Androgen receptor, more than 30 µM.
For the molecule `O=C(Oc1ccc2c(c1)CCCN2C(=O)C(Cl)Cl)c1ccco1` [QUINFAMIDE], the AC50 is more than 30 µM at D(3) dopamine receptor; 15.4 µM in experiment [1]; 24.6 µM in experiment [2]; more than 30 µM in experiment [3]; 20.3 µM on Estrogen receptor; more than 30 µM at Androgen receptor.
On to `Nc1ccc(S(=O)(=O)c2cnc(N)s2)cc1` [THIAZOLSULFONE], for which the AC50 (at D(3) dopamine receptor; in [1]; in [2]; in experiment [3]; on Estrogen receptor; at Androgen receptor) was more than 30 µM in each case.
Turning to `Nc1nc2nc[nH]c2c(=S)[nH]1` [THIOGUANINE], the AC50 (on D(3) dopamine receptor; in [2]; in experiment [3]; on Estrogen receptor; on Androgen receptor) was more than 30 µM each time.
With `CCCCS(=O)(=O)N[C@@H](Cc1ccc(OCCCCC2CCNCC2)cc1)C(=O)O` [TIROFIBAN], the AC50 at D(3) dopamine receptor is more than 30 µM; in experiment [1], more than 10 µM; in [2], more than 10 µM; in experiment [3] it was more than 30 µM; at Estrogen receptor, more than 30 µM; at Androgen receptor it was more than 30 µM.
For the molecule `CC(CNC(=O)c1ccccc1)C(=O)OCC(=O)[C@@]12OC(C)(C)O[C@@H]1C[C@H]1[C@@H]3CCC4=CC(=O)C=C[C@]4(C)[C@@]3(F)[C@@H](O)C[C@@]12C` (stereo partly drawn) [TRIAMCINOLONE BENETONIDE], the AC50 (on D(3) dopamine receptor; in [1]; in experiment [2]; in experiment [3]; on Estrogen receptor; at Androgen receptor) was more than 30 µM throughout.
Consider `CC[C@]1(O)C[C@H]2CN(CCc3c([nH]c4ccccc34)[C@@](C(=O)OC)(c3cc4c(cc3OC)N(C=O)[C@H]3[C@@](O)(C(=O)OC)[C@H](OC(C)=O)[C@]5(CC)C=CCN6CC[C@]43[C@@H]65)C2)C1` [VINCRISTINE], for which the AC50 (on D(3) dopamine receptor; in [2]; in [3]; on Estrogen receptor; at Androgen receptor) was more than 30 µM throughout.
